Experimental data: patent US9126984B2, “4-(indol-3-yl)-pyrazole derivatives, pharmaceutical compositions and methods for use” (ITEOS THERAPEUTICS, priority 2013, dated 2015)

What was measured:
[1] = biological target: T1, human recombinant TDO2 enzyme (Homo sapiens, UniProt P48775); assay: Assay for TDO2 enzymatic activity determination; assay type: biochemical; settings: human recombinant TDO2, L-Trp 1 mM, room temperature one hour, kynurenine absorbance at 480 nm
T1 construct: made in house
Procedure: To measure the TDO2 activity, the reaction mixture contained (final concentrations) potassium phosphate buffer (50 mM, pH 7.5), ascorbic acid (0.25 M), methylene blue (0.125 μM), catalase (40 units/mL, from bovine liver, Sigma), and human recombinant TDO2 enzyme (prepared as described in Dolusic et al. J. Med. Chem.; 2011, 54, 5320-5334; 0.9 μg) without or with the compounds of the present invention embodiments at the indicated concentrations (total volume 112.5 μL). The reaction was initiated by the addition of 37.5 μL of L-Trp (final concentration 1 mM) at room temperature. The reaction was conducted at room temperature during one hour and stopped by the addition of 30 μL of 30% (w/v) trichloroacetic acid.
To convert N-formylkynurenine into kynurenine, the reaction mixture was incubated at 65° C. for 30 min. Then 150 μL of the reaction mixture was mixed with 120 μL, of 2.5% (w/v) 4-(dimethylamino)-benzaldehyde in acetic acid and incubated for 5 min at room temperature. Kynurenine concentrations were determined by measuring the absorbance at 480 nm. A standard curve was made with pure kynurenine. The TDO activity was measured as described above using ten serial concentrations of certain embodiments of the compounds of the present invention. Data were fitted using the Prism software (GraphPad Software, Inc.).

[2] = biological target: T2, murine mastocytoma P815 cells overexpressing hTDO2 (Homo sapiens, UniProt P48775); assay: Cellular assay for TDO2 activity determination; assay type: cell-based; settings: P815 cells overexpressing hTDO2, overnight incubation at 37° C., kynurenine absorbance at 480 nm
T2 construct: expressed in transfected cells; host or cells: murine mastocytoma P815 cells
Procedure: The assay was performed in 96-well flat bottom plates seeded with murine mastocytoma P815 cells overexpressing hTDO2 (prepared as described in Pilotte et al., PNAS, 2012, 109(7), 2497-2502), at a concentration of 5×10^4 cells/well in a final volume of 200 μL. To determine TDO or IDO activity, the cells were incubated overnight at 37° C. at 5% CO2 in IMDM (Invitrogen) supplemented with 2% FBS and 2% penicillin/streptomycin in the presence of the compounds of the present invention, at different concentrations.
The plates were then centrifuged 5 min at 1000 rpm, and 100 μL of the supernatant were collected in a conical plate, 30 uL of TCA 30% were added and a further centrifugated at 3000×g for 10 minutes. 100 μL of the supernatant were collected in a flat bottomed plate and 100 μL of 2% (w/v) 4-(dimethylamino)-benzaldehyde in acetic acid and incubated for 5 min at room temperature. Kynurenine concentrations were determined by measuring the absorbance at 480 nm. A standard curve was made with pure kynurenine. The TDO activity was measured as described above using ten serial concentrations of the compounds of the present invention. Data were fitted using the Prism software (GraphPad Software, Inc.).

T1 sequence (P48775 whole entry): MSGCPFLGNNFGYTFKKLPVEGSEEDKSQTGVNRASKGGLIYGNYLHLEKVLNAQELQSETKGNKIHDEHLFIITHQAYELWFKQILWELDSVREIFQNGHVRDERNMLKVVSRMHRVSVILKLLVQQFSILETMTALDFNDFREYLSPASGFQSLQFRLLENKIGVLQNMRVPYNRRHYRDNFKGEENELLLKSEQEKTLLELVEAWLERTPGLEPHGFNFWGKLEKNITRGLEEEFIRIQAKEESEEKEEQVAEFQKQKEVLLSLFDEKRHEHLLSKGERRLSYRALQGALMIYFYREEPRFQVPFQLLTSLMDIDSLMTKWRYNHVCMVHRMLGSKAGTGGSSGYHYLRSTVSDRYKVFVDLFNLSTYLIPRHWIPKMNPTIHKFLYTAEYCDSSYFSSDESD
T2 sequence (P48775 whole entry): as above

SMILES	IC50 [1] [nM]	IC50 [2] [nM]	melting point [°C]
CC(=O)N1CCC(n2cc(-c3c[nH]c4cc(F)ccc34)cn2)CC1 [Example 89, 1-(4-(4-(6-fluoro-1H-indol-3-yl)-1H-pyrazol-1-yl)piperidin-1-yl)ethanone]	1000 to 10000	< 1000	183.2 to 184.5
CS(=O)(=O)CCn1cc(-c2c[nH]c3cc(F)ccc23)cn1 [Example 31, 6-fluoro-3-(1-(2-(methylsulfonyl)ethyl)-1H-pyrazol-4-yl)-1H-indole]	1000 to 10000	< 1000	153.3 to 155.1
CC(Cn1cc(-c2c[nH]c3cc(F)ccc23)cn1)C(N)=O (single isomer, unassigned) [Example 35, 3-(4-(6-fluoro-1H-indol-3-yl)-1H-pyrazol-1-yl)-2-methylpropanamide]	1000 to 10000	< 1000	184.5 to 185.5
Fc1ccc2c(-c3cnn(CC4CCOCC4)c3)c[nH]c2c1 [Example 58, 6-fluoro-3-(1-((tetrahydro-2H-pyran-4-yl)methyl)-1H-pyrazol-4-yl)-1H-indole]	1000 to 10000	1000 to 10000	138.9 to 139.6
CN1CCC(n2cc(-c3c[nH]c4cc(F)ccc34)cn2)CC1 [Example 91, 6-fluoro-3-(1-(1-methylpiperidin-4-yl)-1H-pyrazol-4-yl)-1H-indole]	1000 to 10000	< 1000	222.8 to 223.7
O=C(O)CCC(=O)N1CCC(n2cc(-c3c[nH]c4cc(F)ccc34)cn2)CC1 [Example 80, 4-(4-(4-(6-fluoro-1H-indol-3-yl)-1H-pyrazol-1-yl)piperidin-1-yl)-4-oxobutanoic acid]	10000 to 100000	–	226 to 228

The remaining lines, values ahead:

IC50 [1] [nM]	IC50 [2] [nM]	melting point [°C]	SMILES
1000 to 10000	< 1000	240.1 to 241.8	Fc1ccc2c(-c3cnn(C4CCNCC4)c3)c[nH]c2c1 [Example 78, 6-fluoro-3-(1-(piperidin-4-yl)-1H-pyrazol-4-yl)-1H-indole]
1000 to 10000	1000 to 10000	193.1 to 194.1	O=S1(=O)CCC(Cn2cc(-c3c[nH]c4cc(F)ccc34)cn2)CC1 [Example 60, 4-((4-(6-fluoro-1H-indol-3-yl)-1H-pyrazol-1-yl)methyl)tetrahydro-2H-thiopyran 1,1-dioxide]
1000 to 10000	< 1000	167.1 to 168.9	Fc1cc2[nH]cc(-c3cnn(CC4CCNCC4)c3)c2cc1F [Example 44, 5,6-difluoro-3-(1-(piperidin-4-ylmethyl)-1H-pyrazol-4-yl)-1H-indole]
< 1000	1000 to 10000	94.2 to 95.2	CNCCn1cc(-c2c[nH]c3cc(F)ccc23)cn1 [Example 24, 2-(4-(6-fluoro-1H-indol-3-yl)-1H-pyrazol-1-yl)-N-methylethanamine]
< 1000	< 1000	173.3 to 175	NC(=O)CCn1cc(-c2c[nH]c3cc(F)ccc23)cn1 [Example 7, 3-(4-(6-fluoro-1H-indol-3-yl)-1H-pyrazol-1-yl)propanamide]
